In paper PMC9416111, “Synthesis and Biological Activity of Unsymmetrical Monoterpenylhetaryl Disulfides” (Molecules, 2022):

Test system: influenza virus A/Puerto Rico/8/34 (H1N1)
Assay: Antiviral cell protection assay in MDCK cells
Assay type: cell-based

SMILES: CC1(C)[C@H]2CC[C@@H](CSSc3ncccc3C(=O)O)[C@@H]1C2 [Compound 2d, 2-((((1S,2R,5S)-6,6-dimethylbicyclo[3.1.1]heptan-2-yl)methyl)disulfanyl)nicotinic acid]
- virus-inhibiting activity, in words: higher than that of Rimantadine
